TGI and GI50 data for ten compounds are collected here from PubChem BioAssay (NCI).

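A five-concentration, 48-hour dose response in 96-well plates underlies each endpoint, interpolated linearly between surrounding concentrations. Here, GI50 denotes the concentration required for 50% inhibition of growth. TGI: total growth inhibition.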 Some results are limits rather than exact numbers.

Among the test systems are ACHN renal; CCRF-CEM leukemia; DU-145 prostate; HCC-2998 colon; IGROV1 ovarian; KM12 colon; MDA-MB-231 breast; MDA-MB-435; MOLT-4 leukemia; NCI-H460 lung; NCI-H522 lung; SK-OV-3 ovarian; UO-31 renal.
Experiment in all cases: NCI anticancer screen, dose series, 48 h

With `CC(=O)OC1CC2C(=O)CC1(C)C2(C)C` (stereo unspecified), the TGI with ACHN renal, with CCRF-CEM leukemia, in the test with DU-145 prostate, in the test on HCC-2998 colon, in the test on IGROV1 ovarian and with KM12 colon was > 100 µM throughout. Further, the TGI with MDA-MB-231 breast, in the test on MDA-MB-435, in the test with MOLT-4 leukemia, with NCI-H460 lung, in the test with NCI-H522 lung and in the test on SK-OV-3 ovarian was > 100 µM each time. Moreover, the TGI with UO-31 renal is > 100 µM. In the test with IGROV1 ovarian, the GI50 was > 100 µM.

On to `CC(C)NC(=O)OCc1c(COC(=O)NC(C)C)c(-c2cc[n+](COC(=O)Cc3ccccc3)cc2)n2c1CCC2`, for which the TGI in the test with ACHN renal, in the test with CCRF-CEM leukemia, in the test with DU-145 prostate, with HCC-2998 colon, in the test with IGROV1 ovarian and with KM12 colon was > 100 µM each time. The TGI with MDA-MB-231 breast, in the test on MDA-MB-435, with MOLT-4 leukemia, with NCI-H460 lung, in the test on NCI-H522 lung and with SK-OV-3 ovarian was > 100 µM throughout. In addition, the TGI in the test on UO-31 renal was > 100 µM.

For `c1cc2cc(Cc3ccc4[nH]ccc4c3)ccc2[nH]1`, the TGI in the test on ACHN renal was 64.8 µM; in the test on CCRF-CEM leukemia, > 100 µM; in the test with DU-145 prostate, 56.2 µM; in the test with HCC-2998 colon, 28.8 µM; with IGROV1 ovarian, 39.4 µM; with KM12 colon, 30.9 µM. Further, the TGI is 33.8 µM in the test with MDA-MB-231 breast; 45.7 µM with MDA-MB-435; 41 µM in the test with MOLT-4 leukemia; 31.1 µM in the test on NCI-H460 lung; 34.5 µM in the test with NCI-H522 lung; 47.8 µM in the test with SK-OV-3 ovarian. In addition, the TGI with UO-31 renal was found to be 34.6 µM.

As for `O=C(NCCCN1CCN(CCCNC(=O)c2cc(-c3ccccc3)nc3ccccc23)CC1)c1cc(-c2ccccc2)nc2ccccc12`, the TGI with ACHN renal is 28.8 µM; in the test with CCRF-CEM leukemia, > 56.4 µM; with DU-145 prostate it was > 67.1 µM; in the test on HCC-2998 colon, 6.06 µM; with IGROV1 ovarian, 27.8 µM; with KM12 colon it was > 58.2 µM. Further, the TGI in the test with MDA-MB-231 breast was > 62.6 µM; in the test on MDA-MB-435, 14.7 µM; with MOLT-4 leukemia it was > 66.1 µM; in the test with NCI-H460 lung, > 64.7 µM; in the test with NCI-H522 lung it was 32 µM; in the test on SK-OV-3 ovarian, 40.2 µM. Also, in the test on UO-31 renal, the TGI was > 42.2 µM.

As for `CC(=O)c1ccc(Nc2nc3ccccc3c3occc23)cc1`, the TGI came out at 60.2 µM in the test with ACHN renal; 67.3 µM in the test with CCRF-CEM leukemia; 75 µM with DU-145 prostate; 28.4 µM in the test on HCC-2998 colon; 36.2 µM in the test with IGROV1 ovarian; 44.3 µM with KM12 colon. In addition, the TGI in the test with MDA-MB-231 breast is > 100 µM; in the test with MDA-MB-435 it was 9.69 µM; with MOLT-4 leukemia it was 11.9 µM; with NCI-H460 lung it was 23 µM; in the test with NCI-H522 lung, 9.12 µM; with SK-OV-3 ovarian, 58.8 µM. Also, in the test on UO-31 renal, the TGI came out at 96.4 µM.

`Oc1c(Cl)c(Cl)c(O)c(-c2cnc(-c3ncc(-c4c(O)c(Cl)c(Cl)c(O)c4Cl)s3)s2)c1Cl`: the TGI was 51.5 µM in the test with ACHN renal; > 100 µM with CCRF-CEM leukemia; > 100 µM with DU-145 prostate; > 100 µM with HCC-2998 colon; 37 µM in the test with IGROV1 ovarian; > 100 µM in the test with KM12 colon. For the same compound, the TGI in the test with MDA-MB-231 breast is 42.8 µM; with MDA-MB-435, 47.7 µM; in the test with MOLT-4 leukemia, > 100 µM; with NCI-H460 lung, > 100 µM; with NCI-H522 lung it was 5.43 µM; with SK-OV-3 ovarian, > 100 µM. Also, the TGI in the test on UO-31 renal was found to be 58.7 µM.

Turning to `COC1=C(OC)C(=O)C(C/C=C/c2c(Cl)nc3sccn23)=C(C)C1=O`, the TGI with ACHN renal was 36.1 µM; in the test on CCRF-CEM leukemia, 41.1 µM; with DU-145 prostate, 40.3 µM; in the test on HCC-2998 colon, 39.3 µM; with IGROV1 ovarian, 35.9 µM; in the test with KM12 colon, 44.4 µM. Besides, the TGI is 25.3 µM in the test on MDA-MB-231 breast; 23.6 µM with MDA-MB-435; 8.97 µM in the test with MOLT-4 leukemia; 38.6 µM in the test on NCI-H460 lung; 33.2 µM with NCI-H522 lung; 33.8 µM in the test with SK-OV-3 ovarian. Further, the TGI in the test on UO-31 renal worked out at 38.8 µM.

As for `CCOC(OCC)[C@@H]1C[C@@H]2N(O[C@H](OC3CCCC3(c3ccccc3)c3ccccc3)[C@H](OC(C)=O)[C@@]2(CC)Cc2ccc(OC)c(OC)c2)O1` (stereo partly specified), the TGI with ACHN renal, with CCRF-CEM leukemia, with DU-145 prostate, in the test with HCC-2998 colon, in the test with IGROV1 ovarian and in the test on KM12 colon was > 100 µM in each case. For the same compound, the TGI with MDA-MB-231 breast, with MDA-MB-435, with MOLT-4 leukemia, in the test with NCI-H460 lung, in the test with NCI-H522 lung and in the test on SK-OV-3 ovarian was > 100 µM each time. The TGI in the test with UO-31 renal was > 100 µM.

In the case of `CCOC(=O)CN1C(=O)c2c(NC(=O)C(=O)O)cccc2S1(=O)=O`, the TGI in the test on ACHN renal, in the test on CCRF-CEM leukemia, in the test on DU-145 prostate, in the test with HCC-2998 colon, in the test on IGROV1 ovarian and in the test with KM12 colon was > 100 µM in each case. The TGI in the test on MDA-MB-231 breast, in the test on MDA-MB-435, in the test with MOLT-4 leukemia, in the test with NCI-H460 lung, in the test on NCI-H522 lung and in the test on SK-OV-3 ovarian was > 100 µM each time. Also, the TGI in the test with UO-31 renal is > 100 µM.

In the case of `CC(C)(C)c1cc(OCc2n[nH]c(=S)n2N)c(Cl)cc1OCc1n[nH]c(=S)n1N`, the TGI in the test with ACHN renal, with CCRF-CEM leukemia, in the test on DU-145 prostate, in the test on HCC-2998 colon, with IGROV1 ovarian and in the test on KM12 colon was > 100 µM each time. Further, the TGI in the test with MDA-MB-231 breast is > 100 µM; in the test on MDA-MB-435, > 100 µM; in the test with MOLT-4 leukemia, > 100 µM; with NCI-H460 lung it was 77.9 µM; with NCI-H522 lung, > 100 µM; with SK-OV-3 ovarian, > 100 µM. Further, the TGI in the test on UO-31 renal is > 100 µM.
